The target in one test is T1, Cyclooxygenase (CO) (Homo sapiens, UniProt P23219).
T1 construct: The leukocytes were homogenised and 5 μM arachidonic acid added; endogenous in cells; host or cells: homogenate of leukocytes from blood of normal aspirin-free volunteers
Kind of test: In vitro inhibition of Cyclooxygenase (CO); leukocyte homogenate with arachidonic acid, radioimmunoassay for thromboxane. The format is biochemical. Conditions: homogenised leukocytes from aspirin-free volunteers, 5 μM arachidonic acid, 37°, 5 minutes; thomboxane B4 (CO product). The protocol:
(§1) In vitro inhibition of 5-lipoxygenase (LO) and Cyclooxygenase (CO)
(§2) Blood from normal aspirin-free volunteers was centrifuged to separate leukocytes from red cells and platelets. The leukocytes were homogenised and 5 μM arachidonic acid added, followed by incubation at 37° for 5 minutes. The reaction was stopped by boiling. Radioimmunassay was conducted for leukotriene B4 (an LO product) and thomboxane B4 (a CO product). Results were calculated as IC50 μM activity against each enzyme and as listed below.

The next test concerns the target T2, 5-lipoxygenase (LO) (Homo sapiens, UniProt P09917).
T2 construct: The leukocytes were homogenised and 5 μM arachidonic acid added; endogenous in cells; host or cells: homogenate of leukocytes from blood of normal aspirin-free volunteers
T2 sequence (P09917 1-674): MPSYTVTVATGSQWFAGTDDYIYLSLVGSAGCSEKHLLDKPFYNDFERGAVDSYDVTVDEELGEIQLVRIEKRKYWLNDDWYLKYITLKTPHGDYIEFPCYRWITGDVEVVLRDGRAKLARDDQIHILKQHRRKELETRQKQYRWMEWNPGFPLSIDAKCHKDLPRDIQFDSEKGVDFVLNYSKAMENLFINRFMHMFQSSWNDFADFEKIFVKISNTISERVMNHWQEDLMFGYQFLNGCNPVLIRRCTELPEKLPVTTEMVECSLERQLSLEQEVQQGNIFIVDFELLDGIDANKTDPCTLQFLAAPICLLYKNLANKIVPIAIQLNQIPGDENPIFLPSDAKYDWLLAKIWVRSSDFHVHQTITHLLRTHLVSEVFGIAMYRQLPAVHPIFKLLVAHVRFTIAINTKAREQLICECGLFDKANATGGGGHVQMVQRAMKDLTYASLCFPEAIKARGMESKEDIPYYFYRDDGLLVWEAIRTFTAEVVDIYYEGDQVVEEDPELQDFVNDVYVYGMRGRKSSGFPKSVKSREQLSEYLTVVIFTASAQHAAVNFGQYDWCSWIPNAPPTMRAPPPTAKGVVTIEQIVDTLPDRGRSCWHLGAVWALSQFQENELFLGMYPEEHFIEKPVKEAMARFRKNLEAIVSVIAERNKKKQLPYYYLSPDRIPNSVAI
The test can be described thus: In vitro inhibition of 5-lipoxygenase (LO); leukocyte homogenate with arachidonic acid, radioimmunoassay for leukotriene B4. The format is biochemical. Conditions: homogenised leukocytes from aspirin-free volunteers, 5 μM arachidonic acid, 37°, 5 minutes; leukotriene B4 (LO product). How it is done:
as §1, §2

Consider one compound from patent US5036157A, “Aryl derivatives” (Burroughs Wellcome Co., priority 1987, dated 1991).

T1 sequence (P23219 24-599): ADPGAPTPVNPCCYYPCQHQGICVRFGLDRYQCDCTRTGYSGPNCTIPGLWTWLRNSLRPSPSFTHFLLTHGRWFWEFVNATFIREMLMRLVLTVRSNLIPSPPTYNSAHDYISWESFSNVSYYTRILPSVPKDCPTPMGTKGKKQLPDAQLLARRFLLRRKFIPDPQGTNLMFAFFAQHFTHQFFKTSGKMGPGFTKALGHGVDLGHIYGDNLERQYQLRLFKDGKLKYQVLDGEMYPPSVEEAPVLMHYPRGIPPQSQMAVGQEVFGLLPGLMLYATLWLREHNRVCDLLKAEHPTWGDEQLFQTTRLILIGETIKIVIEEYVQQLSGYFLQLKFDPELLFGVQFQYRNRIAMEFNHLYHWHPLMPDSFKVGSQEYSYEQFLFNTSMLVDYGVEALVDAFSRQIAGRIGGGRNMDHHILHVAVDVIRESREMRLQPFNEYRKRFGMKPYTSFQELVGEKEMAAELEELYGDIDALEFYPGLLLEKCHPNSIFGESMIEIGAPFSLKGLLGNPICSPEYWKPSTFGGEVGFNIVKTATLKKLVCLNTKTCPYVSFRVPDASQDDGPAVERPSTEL

As for `CN(O)C(=O)C=Cc1cccc(Oc2ccccc2)c1` [Example 1, 3-Phenoxy-N-methylcinnamohydroxamic Acid], the concentration for half-maximal inhibition (IC50) against Cyclooxygenase (CO) is 3 µM; against 5-lipoxygenase (LO) it was less than 0.1 µM.
